pIC50: −log10 of the molar value.
Biological target: T1, epithelial sodium channel (ENaC) (Homo sapiens, UniProt P37088+P51168+P51170)
T1 construct: host or cells: primary Human Bronchial Epithelial cells (HBECs), air-liquid interface culture
T1 sequence (P37088 1-669): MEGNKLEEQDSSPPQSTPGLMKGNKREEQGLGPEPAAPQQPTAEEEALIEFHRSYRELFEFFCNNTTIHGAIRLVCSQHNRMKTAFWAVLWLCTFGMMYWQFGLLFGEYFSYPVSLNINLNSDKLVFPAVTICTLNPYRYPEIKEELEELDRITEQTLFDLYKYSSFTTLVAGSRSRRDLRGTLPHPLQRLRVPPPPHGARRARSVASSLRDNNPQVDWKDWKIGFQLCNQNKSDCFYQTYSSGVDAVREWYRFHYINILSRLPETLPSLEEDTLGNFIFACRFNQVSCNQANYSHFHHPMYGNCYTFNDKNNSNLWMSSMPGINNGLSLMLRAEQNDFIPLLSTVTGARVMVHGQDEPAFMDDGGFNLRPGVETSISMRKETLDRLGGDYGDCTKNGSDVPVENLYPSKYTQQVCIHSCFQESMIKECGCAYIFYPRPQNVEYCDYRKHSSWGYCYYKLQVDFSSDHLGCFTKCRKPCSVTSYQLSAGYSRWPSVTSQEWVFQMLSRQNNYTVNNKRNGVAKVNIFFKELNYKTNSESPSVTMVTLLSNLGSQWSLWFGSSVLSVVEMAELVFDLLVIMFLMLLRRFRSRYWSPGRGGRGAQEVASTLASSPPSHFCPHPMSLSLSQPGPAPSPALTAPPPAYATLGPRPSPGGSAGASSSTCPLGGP
T1 sequence (P51168 1-640): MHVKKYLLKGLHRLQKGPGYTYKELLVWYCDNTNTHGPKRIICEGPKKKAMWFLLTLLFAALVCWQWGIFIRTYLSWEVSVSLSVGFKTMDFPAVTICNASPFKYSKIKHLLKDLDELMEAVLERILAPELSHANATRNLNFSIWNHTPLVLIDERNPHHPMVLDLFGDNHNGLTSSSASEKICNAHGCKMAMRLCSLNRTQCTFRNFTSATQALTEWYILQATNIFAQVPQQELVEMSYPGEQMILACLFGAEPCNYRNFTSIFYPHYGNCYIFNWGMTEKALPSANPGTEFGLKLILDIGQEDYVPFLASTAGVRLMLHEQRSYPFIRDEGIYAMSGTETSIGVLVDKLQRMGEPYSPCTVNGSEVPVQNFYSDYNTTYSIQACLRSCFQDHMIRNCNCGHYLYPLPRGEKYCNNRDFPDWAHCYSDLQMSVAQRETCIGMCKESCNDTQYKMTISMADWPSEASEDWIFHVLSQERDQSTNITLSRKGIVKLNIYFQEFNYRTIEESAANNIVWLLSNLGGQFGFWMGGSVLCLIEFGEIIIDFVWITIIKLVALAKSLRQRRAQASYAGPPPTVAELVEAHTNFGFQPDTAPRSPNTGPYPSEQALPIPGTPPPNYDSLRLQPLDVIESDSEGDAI
T1 sequence (P51170 1-649): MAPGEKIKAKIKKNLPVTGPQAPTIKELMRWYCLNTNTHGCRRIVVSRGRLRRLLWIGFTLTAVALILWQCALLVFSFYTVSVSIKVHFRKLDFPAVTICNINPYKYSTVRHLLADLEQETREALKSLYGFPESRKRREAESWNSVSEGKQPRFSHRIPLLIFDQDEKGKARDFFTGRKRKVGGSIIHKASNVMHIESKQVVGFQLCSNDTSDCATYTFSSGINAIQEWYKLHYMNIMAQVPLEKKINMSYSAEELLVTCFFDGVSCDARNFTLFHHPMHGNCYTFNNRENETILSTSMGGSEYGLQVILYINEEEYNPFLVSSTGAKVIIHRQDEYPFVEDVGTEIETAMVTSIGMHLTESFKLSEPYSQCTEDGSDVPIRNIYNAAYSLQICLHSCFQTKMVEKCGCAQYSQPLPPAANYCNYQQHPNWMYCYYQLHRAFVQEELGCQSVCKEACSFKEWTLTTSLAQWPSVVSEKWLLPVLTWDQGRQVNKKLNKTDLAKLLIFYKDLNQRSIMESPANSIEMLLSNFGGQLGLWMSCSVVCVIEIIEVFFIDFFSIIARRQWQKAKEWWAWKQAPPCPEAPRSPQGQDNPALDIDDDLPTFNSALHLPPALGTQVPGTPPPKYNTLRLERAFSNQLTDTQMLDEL
Test: Short circuit current (ISC) measurements in Human Bronchial Epithelial cells, inhibition of amiloride-sensitive ISC
Format: cell-based
Conditions: not given
Experimental: Compounds of formula (I) and their pharmaceutically acceptable salts, hereinafter referred to alternatively as “agents of the invention”, are useful as pharmaceuticals. In particular, the compounds have good ENaC blocker activity and may be tested in the following assays.
Human Bronchial Epithelial cells (HBECs) (Cambrex) were cultured under air-liquid interface conditions to provide a well differentiated mucociliary phenotype.
HBECs were cultured using a modification of the method described by Gray and colleagues (Gray et al., 1996). Cells were seeded in plastic T-162 flasks and were grown in bronchial epithelial cell growth medium (BEGM; Cambrex) supplemented with bovine pituitary extract (52 μg/mL), hydrocortisone (0.5 μg/mL), human recombinant epidermal growth factor (0.5 ng/mL), epinephrine (0.5 μg/mL), transferrin (10 μg/mL), insulin (5 μg/mL), retinoic acid (0.1 μg/mL), triiodothyronine ([…]), gentamycin (50 μg/mL) and amphotericin B (50 ng/mL). Medium was changed every 48 hours until cells were 90% confluent. Cells were then passaged and seeded (8.25×10^5 cells/insert) on polycarbonate Snapwell inserts (Costar) in differentiation media containing 50% DMEM in BEGM with the same supplements as above but without triiodothyronine and a final retinoic acid concentration of 50 nM (all-trans retinoic acid). Cells were maintained submerged for the first 7 days in culture, after which time they were exposed to an apical air interface for the remainder of the culture period. At this time, media was changed to DMEM:F12 media containing 2% v/v Ultroser G for the remainder of culture. Amphotericin B was removed from all media 3 feeds prior to use in the Using Chambers. Cells were used between days 7 and 21 after establishment of the apical-air interface. At all stages of culture, cells were maintained at 37° C. in 5% CO2 in an air incubator.
Short Circuit Current (ISC) Measurements
Snapwell inserts were mounted in Vertical Diffusion Chambers (Costar) and were bathed with continuously gassed Ringer solution (5% CO2 in O2; pH 7.4) maintained at 37° C. containing (in mM): 120 NaCl, 25 NaHCO3, 3.3 KH2PO4, 0.8 K2HPO4, 1.2 CaCl2, 1.2 MgCl2, and 10 glucose. The solution osmolarity was between 280 and 300 mOsmol/kg H2O for all physiological salt solutions used. Cells were voltage clamped to 0 mV (model EVC4000; WPI). RT was measured by applying a 1- or 2-mV pulse at 30-s intervals and calculating RT by Ohm's law. Data were recorded using a PowerLab workstation (ADInstruments).
Test compounds were prepared as a 10 mM stock solution in DMSO (95%). Serial 3-fold dilutions were freshly prepared in an appropriate vehicle (distilled H2O or Ringers solution). The initial concentration was added to the apical chamber as a 1000× concentrate in 5 μL, resulting in a final 1× concentration the 5 mL volume of the Ussing chamber. Subsequent additions of compound were added in a 3.3 μL volume of the 1000× serially diluted stock solution. At the completion of the concentration-response experiment, amiloride (10 μM) was added into the apical chamber to enable the total amiloride-sensitive current to be measured. An amiloride control IC50 was established at the start of each experiment.
Results are expressed as the mean % inhibition of the amiloride-sensitive ISC. Concentration-response curves were plotted and IC50 values generated using GraphPad Prism 3.02. Cell inserts were typically run in duplicate and the IC50 calculated on the mean % inhibition data.

Compound	pIC50
CC(C)(C)c1ccc(OCCn2ccc3c(C(=O)N4CCC5(CC4)CN/C(=N\C(=O)c4nc(Cl)c(N)nc4N)N5)cccc32)cc1 [Example 86, 3,5-Diamino-6-chloro-pyrazine-2-carboxylic acid [8-{1-[2-(4-tert-butyl-phenoxy)-ethyl]-1H-indole-4-carbonyl}-1,3,8-triaza-spiro[4.5]dec-(2E)-ylidene]-amide]	8.10
Nc1nc(N)c(C(=O)/N=C2\NCC3(CCN(C(=O)c4ccc(C(=O)N5CCC6(CC5)CN/C(=N\C(=O)c5nc(Cl)c(N)nc5N)N6)cc4)CC3)N2)nc1Cl [Example 96]	7.43

Same assay, conditions: inhibition of the amiloride-sensitive ISC; Human Bronchial Epithelial cells (HBECs) at air-liquid interface; compound added to apical chamber; read-out: IC50

Compound	pIC50
Nc1nc(N)c(C(=O)/N=C2\NCC3(CCN(C(=O)CCc4ccc(OCc5ccncc5)cc4)CC3)N2)nc1Cl [Example 70, 3,5-Diamino-6-chloro-pyrazine-2-carboxylic acid [8-{3-[4-(pyridin-4-ylmethoxy)-phenyl]-propionyl}-1,3,8-triaza-spiro[4.5]dec-(2E)-ylidene]-amide]	7.13
CC(C)(C)OC(=O)COc1ccc(CCC(=O)N2CCC3(CC2)CN/C(=N\C(=O)c2nc(Cl)c(N)nc2N)N3)cc1 [Example 71, [4-(3-{2-[(E)-3,5-Diamino-6-chloro-pyrazine-2-carbonylimino]-1,3,8-triaza-spiro[4.5]dec-8-yl}-3-oxo-propyl)-phenoxy]-acetic acid tert-butyl]	7.38
CCN(CC)C(=O)Cn1ccc2c(C(=O)N3CCC4(CC3)CN/C(=N\C(=O)c3nc(Cl)c(N)nc3N)N4)cccc21 [Example 91, 3,5-Diamino-6-chloro-pyrazine-2-carboxylic acid [8-(1-diethylcarbamoylmethyl-1H-indole-4-carbonyl)-1,3,8-triaza-spiro[4.5]dec-(2E)-ylidene]-amide]	7.05
Nc1nc(N)c(C(=O)/N=C2\NCC3(CCN(C(=O)[C@H]4CC[C@H](C(=O)N5CCC6(CC5)CN/C(=N\C(=O)c5nc(Cl)c(N)nc5N)N6)CC4)CC3)N2)nc1Cl [Example 94]	8.05

More lines, now with the values ahead:

pIC50	Compound
7.78	Cc1[nH]c2ccc(CC(=O)N3CCC4(CC3)CN/C(=N\C(=O)c3nc(Cl)c(N)nc3N)N4)cc2c1C [Example 48, 3,5-Diamino-6-chloro-pyrazine-2-carboxylic acid [8-[2-(2,3-dimethyl-1H-indol-5-yl)-acetyl]-1,3,8-triaza-spiro[4.5]dec-(2E)-ylidene]-amide]
6.84	Cc1nc(-c2ccccc2)ncc1C(=O)N1CCC2(CC1)CN/C(=N\C(=O)c1nc(Cl)c(N)nc1N)N2 [Example 58, 3,5-Diamino-6-chloro-pyrazine-2-carboxylic acid [8-(4-methyl-2-phenyl-pyrimidine-5-carbonyl)-1,3,8-triaza-spiro[4.5]dec-(2E)-ylidene]-amide]
6.46	COc1cc(OC)nc(COc2ccc(C(=O)N3CCC4(CC3)CN/C(=N\C(=O)c3nc(Cl)c(N)nc3N)N4)cc2)n1 [Example 61, 3,5-Diamino-6-chloro-pyrazine-2-carboxylic acid [8-[4-(4,6-dimethoxy-pyrimidin-2-ylmethoxy)-benzoyl]-1,3,8-triaza-spiro[4.5]dec-(2E)-ylidene]-amide]
7.89	CC(C)NC(=O)Nc1cc(C(=O)N2CCC3(CC2)CN/C(=N\C(=O)c2nc(Cl)c(N)nc2N)N3)ccn1 [Example 62, 3,5-Diamino-6-chloro-pyrazine-2-carboxylic acid [8-[2-(3-isopropyl-ureido)-pyridine-4-carbonyl]-1,3,8-triaza-spiro[4.5]dec-(2E)-ylidene]-amide]
7.59	CC(C)NC(=O)Nc1ccc(C(=O)N2CCC3(CC2)CN/C(=N\C(=O)c2nc(Cl)c(N)nc2N)N3)cc1 [Example 64, 3,5-Diamino-6-chloro-pyrazine-2-carboxylic acid [8-[4-(3-isopropyl-ureido)-benzoyl]-1,3,8-triaza-spiro[4.5]dec-(2E)-ylidene]-amide]
7.40	CC(C)NC(=O)Nc1ccc(C(=O)N2CCC3(CC2)CN/C(=N\C(=O)c2nc(Cl)c(N)nc2N)N3)cn1 [Example 65, 3,5-Diamino-6-chloro-pyrazine-2-carboxylic acid [8-[6-(3-isopropyl-ureido)-pyridine-3-carbonyl]-1,3,8-triaza-spiro[4.5]dec-(2E)-ylidene]-amide]
7.92	CC(C)(C)OC(=O)c1ccc(C(=O)N2CCC3(CC2)CN/C(=N\C(=O)c2nc(Cl)c(N)nc2N)N3)cc1 [Example 76, 4-{2-[(E)-3,5-Diamino-6-chloro-pyrazine-2-carbonylimino]-1,3,8-triaza-spiro[4.5]decane-8-carbonyl}-benzoic acid tert-butyl ester]
7.72	Nc1nc(N)c(C(=O)/N=C2\NCC3(CCN(C(=O)c4cccc5[nH]ccc45)CC3)N2)nc1Cl [Example 99, 3,5-Diamino-6-chloro-pyrazine-2-carboxylic acid [8-(1H-indole-4-carbonyl)-1,3,8-triaza-spiro[4.5]dec-(2E)-ylidene]-amide]
